Experimental data taken from publication PMC8446797 (The Journal of Biological Chemistry, 2021).
No end group written: not given here. 5Flu = C-terminal fluorescein

Assays:
CRIP1a = molecular target: T1, CRIP1a (Rattus norvegicus, UniProt Q5M7A7); test: Fluorescence polarization of fluorescein-labeled peptides binding to CRIP1a; settings: 20 nM peptide, CRIP1a 0–250 μM, 30 min, room temperature, 25 mM Hepes pH 7.5, 100 mM NaCl, 5 mM MgCl2, 0.1 mM EDTA, 2 mM TCEP, 10% glycerol, λex 470 nm, λem 530 nm, biological quadruplicates, three separate days
T1 sequence (Q5M7A7 1-164): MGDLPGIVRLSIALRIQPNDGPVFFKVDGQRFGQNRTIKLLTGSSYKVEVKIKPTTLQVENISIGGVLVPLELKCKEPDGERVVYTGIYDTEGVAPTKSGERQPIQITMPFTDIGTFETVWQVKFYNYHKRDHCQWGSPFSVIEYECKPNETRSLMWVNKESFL

[1] = molecular target: N-terminally myristoylated 9-mer peptide mimicking the Gαi N terminus (Myr-…-5Flu); test: fluorescence polarisation

binding to CRIP1a (in words) (CRIP1a)	Kd [1] [µM]	Substance
inability to bind	–	5Flu-SQGKSSC(Farn)-OMe [Rheb-Farn peptide]
–	21.2	Cannabinoid receptor interacting protein 1a (from UniProt Q5M7A7 1-164) (natural protein)
unable to readily bind	–	Myr-GTASSLVSPK-5Flu [Myr-NHPH3 peptide]
unable to readily bind	–	nonmyristoylated Gα peptide: corresponding nonmyristoylated peptide used as the control (GCTLSAEDK-5Flu)
